Reference: patent US9302999B2, “Substituted triazoles as herbicides” (E. I. DU PONT DE NEMOURS AND COMPANY, priority 2012, dated 2016)

Key:
Format in all cases: in vivo
[1] = tested on: pigweed (Amaranthus retroflexus); assay: Test A pre-/postemergence: pigweed
How it was run: (§1)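 Plants in loam–sand blend were treated with test chemicals in non-phytotoxic solvent with surfactant, either as preemergence directed soil spray or postemergence at 2–10 cm, one- to two-leaf stage. After about ten days in greenhouse, injury was rated visually against untreated controls on a 0–100 scale (100 = complete control).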

[2] = tested on: ducksalad (Heteranthera limosa); assay: Test B flooded paddy: ducksalad; details: Flood, applied to paddy water at 2-leaf stage, visually evaluated after 13 to 15 days
How it was run: (§2)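 2-leaf plants; pots flooded 3 cm over soil; compound added to paddy water, depth kept constant. Greenhouse 13–15 d. Visual rating vs controls, 0–100 scale (100 = complete control); dash = no result.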

[3] = tested on: wheat (Triticum aestivum); assay: Test A pre-/postemergence: wheat
How it was run: as §1

rice (Oryza sativa) = assay: Test B flooded paddy: rice; details: Flood, applied to paddy water at 2-leaf stage, visually evaluated after 13 to 15 days
How it was run: as §2

[4] = tested on: crabgrass, large (large crabgrass, Digitaria sanguinalis); assay: Test A pre-/postemergence: crabgrass, large
How it was run: as §1

[5] = tested on: barnyardgrass (Echinochloa crus-galli); assay: Test B flooded paddy: barnyardgrass; details: Flood, applied to paddy water at 2-leaf stage, visually evaluated after 13 to 15 days
How it was run: as §2

[6] = tested on: morningglory (Ipomoea spp.); assay: Test A pre-/postemergence: morningglory
How it was run: as §1

[7] = tested on: barnyardgrass (Echinochloa crus-galli); assay: Test A pre-/postemergence: barnyardgrass
How it was run: as §1

[8] = tested on: sedge, umbrella (small-flower umbrella sedge Cyperus difformis); assay: Test B flooded paddy: sedge, umbrella; details: Flood, applied to paddy water at 2-leaf stage, visually evaluated after 13 to 15 days
How it was run: as §2

[9] = tested on: velvetleaf (Abutilon theophrasti); assay: Test A pre-/postemergence: velvetleaf
How it was run: as §1

[10] = tested on: foxtail, giant (giant foxtail, Setaria faberii); assay: Test A pre-/postemergence: foxtail, giant
How it was run: as §1

corn (Zea mays) = assay: Test A pre-/postemergence: corn
How it was run: as §1

[11] = Postemergence, 125 g ai/ha, 0 to 100 scale, 0 is no effect, 100 is complete control
[12] = Postemergence, 500 g ai/ha, 0 to 100 scale, 0 is no effect, 100 is complete control
[13] = Preemergence, 125 g ai/ha, 0 to 100 scale where 0 is no effect and 100 is complete control
[14] = Preemergence, 500 g ai/ha, 0 to 100 scale (0 no effect, 100 complete control)

Compound	Plant response rating, Pigweed [1, 11]	Pigweed plant response rating [1, 12]	Plant response rating, Pigweed [1, 13]	Plant response rating, Pigweed [1, 14]	Plant response rating, Wheat [3, 11]	Wheat plant response rating [3, 12]	Plant response rating, Wheat [3, 13]	Plant response rating, Wheat [3, 14]	Plant response rating, Crabgrass, Large [4, 11]	Crabgrass, Large plant response rating [4, 12]	Plant response rating, Crabgrass, Large [4, 13]	Plant response rating, Crabgrass, Large [4, 14]	Plant response rating, Morningglory [6, 11]	Morningglory plant response rating [6, 12]	Plant response rating, Morningglory [6, 13]	Plant response rating, Morningglory [6, 14]	Plant response rating, Barnyardgrass [7, 11]	Barnyardgrass plant response rating [7, 12]	Plant response rating, Barnyardgrass [7, 13]	Plant response rating, Barnyardgrass [7, 14]	further results
CC(C)COc1nn(-c2ccc(C(F)(F)F)cc2)nc1Cc1ccnc(C(F)(F)F)c1 [Compound 193]	70	100	0	20	0	10	0	0	10	30	0	40	10	40	0	0	10	20	0	0	Plant response rating, Ducksalad (0 to 100 scale, 0 is no effect, 100 is complete control) ([2]; 125 g ai/ha): 0; Plant response rating, Rice (0 to 100 scale, 0 is no effect, 100 is complete control) (rice (Oryza sativa); 125 g ai/ha): 0; Plant response rating, Barnyardgrass (0 to 100 scale, 0 is no effect, 100 is complete control) ([5]; 125 g ai/ha): 0; Plant response rating, Sedge, Umbrella (0 to 100 scale, 0 is no effect, 100 is complete control) ([8]; 125 g ai/ha): 0; Plant response rating, Velvetleaf [9, 11]: 30; Velvetleaf plant response rating [9, 12]: 70; Plant response rating, Velvetleaf [9, 13]: 0; Plant response rating, Velvetleaf [9, 14]: 0; Plant response rating, Foxtail, Giant [10, 11]: 10; Foxtail, Giant plant response rating [10, 12]: 20; Plant response rating, Foxtail, Giant [10, 13]: 10; Plant response rating, Foxtail, Giant [10, 14]: 70; Plant response rating, Corn (corn (Zea mays); [11]): 10; Corn plant response rating (corn (Zea mays); [12]): 30; Plant response rating, Corn (corn (Zea mays); [13]): 0; Plant response rating, Corn (corn (Zea mays); [14]): 0
CCCCOc1nn(-c2ccc(C(F)(F)F)cc2)nc1Cc1ccnc(C(F)(F)F)c1 [Compound 194]	40	100	0	10	0	20	0	0	10	20	0	10	10	30	0	0	10	20	0	0	Plant response rating, Ducksalad (0 to 100 scale, 0 is no effect, 100 is complete control) ([2]; 125 g ai/ha): 0; Plant response rating, Rice (0 to 100 scale, 0 is no effect, 100 is complete control) (rice (Oryza sativa); 125 g ai/ha): 0; Plant response rating, Barnyardgrass (0 to 100 scale, 0 is no effect, 100 is complete control) ([5]; 125 g ai/ha): 0; Plant response rating, Sedge, Umbrella (0 to 100 scale, 0 is no effect, 100 is complete control) ([8]; 125 g ai/ha): 0; Plant response rating, Velvetleaf [9, 11]: 30; Velvetleaf plant response rating [9, 12]: 50; Plant response rating, Velvetleaf [9, 13]: 0; Plant response rating, Velvetleaf [9, 14]: 0; Plant response rating, Foxtail, Giant [10, 11]: 10; Foxtail, Giant plant response rating [10, 12]: 30; Plant response rating, Foxtail, Giant [10, 13]: 0; Plant response rating, Foxtail, Giant [10, 14]: 30; Plant response rating, Corn (corn (Zea mays); [11]): 0; Corn plant response rating (corn (Zea mays); [12]): 20; Plant response rating, Corn (corn (Zea mays); [13]): 0; Plant response rating, Corn (corn (Zea mays); [14]): 0
CC(=O)Oc1nn(-c2ccc(C(F)(F)F)cc2)nc1Cc1ccnc(C(F)(F)F)c1 [Compound 197]	30	70	0	0	0	0	0	0	10	20	0	0	30	40	0	0	0	10	0	0	Plant response rating, Ducksalad (0 to 100 scale, 0 is no effect, 100 is complete control) ([2]; 250 g ai/ha): 0; Plant response rating, Rice (0 to 100 scale, 0 is no effect, 100 is complete control) (rice (Oryza sativa); 250 g ai/ha): 0; Plant response rating, Barnyardgrass (0 to 100 scale, 0 is no effect, 100 is complete control) ([5]; 250 g ai/ha): 0; Plant response rating, Sedge, Umbrella (0 to 100 scale, 0 is no effect, 100 is complete control) ([8]; 250 g ai/ha): 0; Plant response rating, Velvetleaf [9, 11]: 20; Velvetleaf plant response rating [9, 12]: 30; Plant response rating, Velvetleaf [9, 13]: 0; Plant response rating, Velvetleaf [9, 14]: 0; Plant response rating, Foxtail, Giant [10, 11]: 10; Foxtail, Giant plant response rating [10, 12]: 40; Plant response rating, Foxtail, Giant [10, 13]: 0; Plant response rating, Foxtail, Giant [10, 14]: 0; Plant response rating, Corn (corn (Zea mays); [11]): 0; Corn plant response rating (corn (Zea mays); [12]): 20; Plant response rating, Corn (corn (Zea mays); [13]): 0; Plant response rating, Corn (corn (Zea mays); [14]): 0
Oc1nn(-c2ccc(C(F)(F)F)cc2)nc1Cc1ccnc(C(F)(F)F)c1 [Compound 198]	10	50	0	0	0	0	0	0	0	10	0	0	10	20	0	0	0	0	0	0	Plant response rating, Ducksalad (0 to 100 scale, 0 is no effect, 100 is complete control) ([2]; 250 g ai/ha): 0; Plant response rating, Rice (0 to 100 scale, 0 is no effect, 100 is complete control) (rice (Oryza sativa); 250 g ai/ha): 0; Plant response rating, Barnyardgrass (0 to 100 scale, 0 is no effect, 100 is complete control) ([5]; 250 g ai/ha): 0; Plant response rating, Sedge, Umbrella (0 to 100 scale, 0 is no effect, 100 is complete control) ([8]; 250 g ai/ha): 0; Plant response rating, Velvetleaf [9, 11]: 10; Velvetleaf plant response rating [9, 12]: 10; Plant response rating, Velvetleaf [9, 13]: 0; Plant response rating, Velvetleaf [9, 14]: 0; Plant response rating, Foxtail, Giant [10, 11]: 0; Foxtail, Giant plant response rating [10, 12]: 10; Plant response rating, Foxtail, Giant [10, 13]: 0; Plant response rating, Foxtail, Giant [10, 14]: 0; Plant response rating, Corn (corn (Zea mays); [11]): 0; Corn plant response rating (corn (Zea mays); [12]): 10; Plant response rating, Corn (corn (Zea mays); [13]): 0; Plant response rating, Corn (corn (Zea mays); [14]): 0
